For one assay, the system named is wheat powdery mildew. Description: Field test of inducing wheat against infection by powdery mildew fungi. Conditions: 1,000 nm. It is filed as in vivo. As for the experimental part: Stems and leaves were sprayed with a 2-amino-3-indolyl butyric acid solution (0.02% by volume of a surfactant Tween 20 was added) at the concentration of 1,000 nm in a filed, sprayed with 0.02% by volume of the surfactant tween 20 as an auxiliary agent control and sprayed with 30 g/mu of ATaiLing as a positive control. Each treatment was repeated three times. The disease grade of the wheat after each treatment was investigated. The disease degree was recorded according to the wheat powdery mildew grading standard in the Guidelines for Field Efficacy Trials of Pesticides (I), and the disease indexes and the relative immune effects were calculated by using the same calculation formula as that of those of the tomato spotted wilt. After the harvested wheat seeds were air-dried, the thousand-grain weights of the wheat seeds after different treatments were measured.
(§1) Grading standard of wheat powdery mildew (taking leaves as units): • grade 1: the area of the disease spots accounted 5% or less of that of the whole leaves; • grade 3: the area of the disease spots accounted for 6%-15% of that of the whole leaves; and • grade 5: the area of the disease spots accounted for 16%-25% of that of the whole leaves; and • grade 7: the area of the disease spots accounted for 26%-50% of that of the whole leaves; and • grade 9: the area of the disease spots accounted for 50% or more of that of the whole leaves.

The subject of assay [1] is Pseudomonas syringae PstDC3000. Briefly: Induction of Arabidopsis thaliana against infection by Pseudomonas syringae. The settings on record: for Disease index reduced by / Number of the bacteria in each milligram of the leaves reduced by: compared with blank control; for CFU (mg), number of bacteria in each milligram of the leaves / Disease index: 3 d after inoculation. It is filed as in vivo. On the procedure:
2-amino-3-indolyl butyric acid was dissolved in sterile water and gradiently diluted with sterile water to obtain solutions of 100 nm, 1,000 nm and 10,000 nm. A blank control was additionally set. Meanwhile, 0.02% Tween 20 was added as a surfactant. Pseudomonas syringae PstDC3000 was coated on an LB plate and cultured at 28° C. for 48 h; monoclonal colonies were selected, inoculated into a 50-mL centrifuge tube containing 2 mL of a culture medium, and cultured on a shaking table at 28° C. and 250 rpm, the change of an OD600 value of the bacterial liquid was monitored every 1-2 h, and the culture of the bacteria was stopped before the OD600 value reached 0.8; 1 mL of the bacterial liquid was transferred to a sterile 1.5-mL centrifuge tube for centrifuging at 8,000 rpm for 2 min and the precipitate was collected; the supernatant was removed, the precipitate was washed 3 times with 10 mM of magnesium chloride and centrifuged, and finally the PstDC3000 was resuspended in 10 mM of magnesium chloride enable the OD600 value to reach […] for late use. Arabidopsis thaliana seeds were soaked in 75% alcohol for 3 min, washed with sterile water for 4 times and seeded in a culture dish containing ½ MS culture medium with 12 seeds sown on each culture dish. The ½ MS culture dish carrying the seeds were vernalized at 4° C. for 3 d to break dormancy and then placed in a culture room at 22° C. and the illumination intensity of 100 μEm^−2s^−1 (16 h light/8 h dark). When the seedlings grew for 2 weeks, 2-amino-3-indolyl butyric acid at different concentrations were slowly poured into the culture dish until the whole Arabidopsis thaliana seedlings were submerged for 2-3 min, then the treatment solution was completely poured from the culture dish, and the treatment was performed once every other 24 h for a total of 2 times. The PstDC3000 suspension (OD600=0.01) was inoculated to the Arabidopsis thaliana leaves by using the same submerging method 24 h after the 2nd treatment, and then the culture dish was sealed by a medical breathable adhesive plaster after the inoculation and placed in the culture room for continuous culture. After 3 d, the number of the bacteria subjected to different treatments was determined, the disease condition of the Arabidopsis thaliana was observed, and the disease indexes were calculated by using the same calculation formula as that in example 2.
Grading standard of diseases caused by PstDC3000 (taking leaves as units): • grade 0: the leaf surfaces were free of disease spots; • grade 1: the area of the disease spots accounted for 0%-10% of that of the whole leaves; • grade 2: the area of the disease spots accounted for 10%-25% of that of the whole leaves; • grade 3: the area of the disease spots accounted for 25%-50% of that of the whole leaves; • grade 4: the area of the disease spots accounted for 50%-75% of that of the whole leaves; and • grade 5: the area of the disease spots accounted for 75%-100% of that of the whole leaves.

The subject of assay [2] is wheat powdery mildew fungus. Description: Induction of wheat against infection by powdery mildew fungi (greenhouse pots). It is filed as in vivo, wheat (NAU0686). The settings on record: for Disease index of the susceptible wheat / Relative immune effect: concentration greater than 1,000 nm. On the procedure:
[…] A blank control was additionally set. After germination of wheat (NAU0686) seeds was accelerated, the wheat was planted in a sterilized soil culture bowl and cultured in a greenhouse at 23±1° C. with the illumination for 12 h. When the seedlings grew to a stage of one true leaf and one terminal bud, the wheat seedlings were sprayed with the 2-amino-3-indolyl butyric acid solutions at the above concentrations on stems and leaves. The treatment was repeated once every 24 h and a total of two treatments was performed. Fresh wheat powdery mildew fungus spores were evenly scattered on the wheat leaves after 24 h. 3 pots of the plants were treated each time with 20 plants in each pot. After 10 d, the disease grade of the wheat after each treatment was investigated. The disease degree was recorded according to the wheat powdery mildew grading standard in the Guidelines for Field Efficacy Trials of Pesticides (I), and the disease indexes and the relative immune effects were calculated by using the same calculation formula as that of those of the tomato spotted wilt.
as §1

[3] abbreviates: compared with the auxiliary agent control.
The mark [4] stands for this setting: treatment concentration 1,000 nm.
Where [5] appears, read: treatment concentration 10,000 nm.

Where “and” joins values, the source holds several entries; their conditions need not be identical. Equal values may be shown once.

Regarding `CC(c1c[nH]c2ccccc12)C(N)C(=O)O` (stereo not shown), the “Relative immune effect (%)” value in the assay with wheat powdery mildew was 40.55%; in assay [2] (treatment concentration 10 nm), 22.04%; in assay [2] (treatment concentration 100 nm) it was 32.59%; in assay [2] (setting [4]) it was 53.58%; in assay [2] (setting [5]), 68.42% and 68.43%. Further, the “Thousand-grain weight” value in the assay on wheat powdery mildew was 27.39 g. In the assay on wheat powdery mildew, the “Thousand-grain weight (g)” value is given as 27.39 ± 0.29a g. In addition, the “Relative immune effect improved by” value was found to be 12% in the assay on wheat powdery mildew (compared with Altailing control group) and 40% in the assay on wheat powdery mildew (setting [3]). For the same compound, the “Thousand-grain weight increased by” value in the assay on wheat powdery mildew (setting [3]) is listed as 10.80%. For the same compound, the “Disease index reduced by” value in the assay with wheat powdery mildew (vs auxiliary agent control group) is on record as 40.55%; in assay [1] (100 nm), 51.25%; in assay [1] (1,000 nm), 53.92%; in assay [1] (10,000 nm), 64.42%. Besides, the “Number of the bacteria in each milligram of the leaves reduced by” value in assay [1] (100 nm) is 76.75%; in assay [1] (1,000 nm), 80.97%; in assay [1] (10,000 nm), 85.039% and 85.03%. Besides, the “CFU (mg), number of bacteria in each milligram of the leaves” value is 7.44 × 10^5 CFU (mg) in assay [1] (treatment concentration 100 nm), 6.09 × 10^5 CFU (mg) in assay [1] (setting [4]) and 4.79×10^5 CFU (mg) in assay [1] (setting [5]). In addition, the Disease index amounted to 40.53 ± 1.95b in assay [1] (treatment concentration 100 nm) and 38.31 ± 1.80b in assay [1] (setting [4]). The “Disease index of the susceptible wheat” value in assay [2] is reported as “lower than 50”. In assay [2], the Relative immune effect entry is reported as “exceeded 50%”.
On to `CC1CCNC1C(=O)O` (stereo not shown) [3-methylpyrrolidine-2-carboxylic acid], for which the “Disease index reduced by” value in assay [1] (100 nm) worked out at 41.13%; in assay [1] (1,000 nm), 52.47%; in assay [1] (10,000 nm), 72.69%. Further, the “Number of the bacteria in each milligram of the leaves reduced by” value in assay [1] (100 nm) is 70.78%; in assay [1] (1,000 nm), 80.90%; in assay [1] (10,000 nm) it was 94.92% and 94.90%. For the same compound, the results for the “CFU (mg), number of bacteria in each milligram of the leaves” value in assay [1] (treatment concentration 100 nm), in assay [1] (setting [4]) and in assay [1] (setting [5]) were 9.41 × 10^5 CFU (mg), 6.15 × 10^5 CFU (mg) and 1.64×10^5 CFU (mg), respectively. In addition, the Disease index was 50.14 ± 1.54b in assay [1] (treatment concentration 100 nm) and 40.48 ± 0.17c in assay [1] (setting [4]). For the same compound, the “Disease index of the susceptible wheat” value in assay [2] is listed as “lower than 50”. Also, in assay [2], the Relative immune effect entry is “exceeded 50%”. Besides, the figures for the “Relative immune effect (%)” value in assay [2] (treatment concentration 10 nm), in assay [2] (treatment concentration 100 nm) and in assay [2] (setting [5]) were 25.04%, 43.73% and 68.57%, respectively.

For the origin of these results see patent US20250204528A1, “USE OF 2-AMINO-3-INDOLYL BUTYRIC ACID OR 3-METHYLPYRROLIDINE-2-CARBOXYLIC ACID AS PLANT IMMUNITY ELICITOR” (NANJING TIANNONG BIOTECHNOLOGY CO., LTD, priority 2021, published 2025).
